In paper PMC9629815, “MK256 is a novel CDK8 inhibitor with potent antitumor activity in AML through downregulation of the STAT pathway” (Oncotarget, 2022):
Where two headings read alike, the source gives them in different places.

Assays:
SKNO-1 = assay: Cell proliferation assay (CellTiter-Glo, 7-day); format: cell-based; details: SKNO-1, 168 h
Procedure: (§1) AML cell lines MV-4-11, MOLM14, KG-1, and SKNO-1 were acquired from ATCC (Manassas, VA, USA) and DSMZ (Braunschweig, Germany). Cells were plated (96-well) in triplicate at 3000 cells per well for testing (n = 3) in 1% FBS media. On day 7, the CellTiter-Glo Luminescent Cell Viability Assay (Promega, Madison, WI, US) was performed to measure the response. Two independent experiments were done.

MV-4-11 = assay: Cell proliferation assay (CellTiter-Glo, 7-day); format: cell-based; details: Homo sapiens, MV4-11, 168 h
Procedure: as §1

MOLM-13 = assay: Cell proliferation assay (CellTiter-Glo, 7-day); format: cell-based; details: Homo sapiens, MOLM-13, 168 h
Procedure: [The procedure below names another cell line; the source lists this cell line under the same test.] as §1

KG-1 = assay: Cell proliferation assay (CellTiter-Glo, 7-day); format: cell-based; details: Homo sapiens, KG-1, 168 h
Procedure: as §1

HEL = assay: Cell proliferation assay (CellTiter-Glo, 7-day); format: cell-based; details: Homo sapiens, 168 h
Procedure: [The procedure below names another cell line; the source lists this cell line under the same test.] as §1

MUTZ-8 = assay: Cell proliferation assay (CellTiter-Glo, 7-day); format: cell-based; details: MUTZ-8, 168 h
Procedure: [The procedure below names another cell line; the source lists this cell line under the same test.] as §1

MONO-MAC-6 = assay: Cell proliferation assay (CellTiter-Glo, 7-day); format: cell-based; details: Homo sapiens, MONO-MAC-6, 168 h
Procedure: [The procedure below names another cell line; the source lists this cell line under the same test.] as §1

NOMO-1 = assay: Cell proliferation assay (CellTiter-Glo, 7-day); format: cell-based; details: Homo sapiens, NOMO-1, 168 h
Procedure: [The procedure below names another cell line; the source lists this cell line under the same test.] as §1

MOLM-14 = assay: Cell proliferation assay (CellTiter-Glo, 7-day); format: cell-based; details: Homo sapiens, MOLM-14, 168 h
Procedure: as §1

[1] = Hepatocyte stability assay; format: in vitro ADME, Dog
Procedure: Human LiverPoolTM 20-donor, dog and mouse cryopreserved hepatocytes were obtained from BioreclamationIVT. Cryopreserved hepatocytes were removed from the liquid nitrogen tank and thawed in a 37°C water bath. As soon as the cells pulled away from the vial wall, they were decanted into 48 ml of warm HT medium. Cells were centrifuged for four minutes at 420 rpm (50 g). After the supernatant was removed, the pellet was re-suspended in warm DMEM medium. Cell density was counted by a hemacytometer. The assay was carried out in 96-well microtiter plates. MK256 was incubated for 0, 60, 120, and 180 minutes at 37°C with hepatocytes. Reaction mixtures (50 μL) contained a final concentration of 1 μM MK256, 0.5 million cells/mL hepatocytes in the DMEM medium. At each time point (for example, 0, 1, 2, and 3 hrs), 200 μL of quench solution (100% acetonitrile with 0.1% formic acid) with internal standard were transferred to each well. […] All samples were analyzed on LC/MS/MS using an AB Sciex API 4000 instrument, coupled to a Shimadzu LC-20AD LC Pump system. […] The extent of metabolism was calculated as the disappearance of the test compound, compared to the 0-min control reaction incubations. Initial rates were calculated for the compound concentration and used to determine t1/2 values and subsequently, the intrinsic clearance, CLint = (0.693)(1/t1/2 (min))(mL incubation/million cells).

CDK8/cyclin C = CDK8/cyclin C (Homo sapiens, UniProt P49336); assay: SelectScreen kinase profiling, IC50; format: biochemical; details: read-out: IC50 against CDK8/cyclin C
Text: (§2) MK256 was synthesized in house. The kinase profiling of MK256 against various targets was done using the SelectScreen Kinase Profiling Services provided by ThermoFisher Scientific (Walham WA, USA). https://www.thermofisher.com/us/en/home/products-and-services/services/custom-services/screening-and-profiling-services/selectscreen-profiling-service/selectscreen-kinase-profiling-service.html.

CDK9 = CDK9 (Homo sapiens, UniProt P50750); assay: SelectScreen kinase profiling, IC50; format: biochemical
Text: as §2

CDK19/cyclin C = CDK19/cyclin C (Homo sapiens, UniProt Q9BWU1); assay: SelectScreen kinase profiling, IC50; format: biochemical; details: read-out: IC50 against CDK19/cyclin C
Text: as §2

[2] = Histological analysis (H&E) of major organs after 21 days treatment; format: in vivo, mice; details: 100 mg/kg, q.d., oral
Procedure: To evaluate the behavior of MK256 in vivo we did a full pharmacokinetics (PK) analysis of MK256 in mice. […] In the MOLM-14 xenograft model, we treated mice with 10 mg/kg, 50 mg/kg and 100 mg/kg of MK256 for 6 hrs, after which tumors from each treatment group were harvested and processed for western blotting analysis. […] We also performed a histological analysis of the major organs (bone, brain, heart, intestine, kidney, liver and lung) of mice after they were treated with 100 mg/kg of MK256 for 21 days (q.d, oral) (Figure 8). […] In summary, MK256 offered a desirable solubility, permeability, hepatocyte stability, toxicology, and pharmacokinetics/pharmacodynamics (PK/PD) profile.
Figure 8 Evaluation of the toxicity of MK256 in vivo. Histological data (H&E staining) obtained in the major organs (bone, brain, heart, intestine, kidney, liver, and lung) of the mice treated with MK256 (100 mg/kg, q.d., oral) for 21 days.

CYR2C8 = CYR2C8 (Homo sapiens, UniProt P10632); assay: Cytochrome P450 inhibition assay; format: in vitro ADME; details: 50 uM
[3] = 7-day, bound given in text, read-out: IC50

Sequence of CDK9 (P50750 whole entry): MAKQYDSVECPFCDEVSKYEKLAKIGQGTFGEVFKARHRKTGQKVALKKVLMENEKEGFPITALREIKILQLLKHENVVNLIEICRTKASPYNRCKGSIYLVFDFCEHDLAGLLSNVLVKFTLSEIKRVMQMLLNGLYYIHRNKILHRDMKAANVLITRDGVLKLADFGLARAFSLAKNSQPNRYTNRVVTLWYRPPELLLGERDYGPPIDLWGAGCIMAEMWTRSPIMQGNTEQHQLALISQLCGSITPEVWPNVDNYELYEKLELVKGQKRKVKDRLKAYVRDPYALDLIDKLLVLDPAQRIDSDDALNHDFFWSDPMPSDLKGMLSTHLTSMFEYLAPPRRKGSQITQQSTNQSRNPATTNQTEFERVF
Sequence of CDK9 (O60563 whole entry partner): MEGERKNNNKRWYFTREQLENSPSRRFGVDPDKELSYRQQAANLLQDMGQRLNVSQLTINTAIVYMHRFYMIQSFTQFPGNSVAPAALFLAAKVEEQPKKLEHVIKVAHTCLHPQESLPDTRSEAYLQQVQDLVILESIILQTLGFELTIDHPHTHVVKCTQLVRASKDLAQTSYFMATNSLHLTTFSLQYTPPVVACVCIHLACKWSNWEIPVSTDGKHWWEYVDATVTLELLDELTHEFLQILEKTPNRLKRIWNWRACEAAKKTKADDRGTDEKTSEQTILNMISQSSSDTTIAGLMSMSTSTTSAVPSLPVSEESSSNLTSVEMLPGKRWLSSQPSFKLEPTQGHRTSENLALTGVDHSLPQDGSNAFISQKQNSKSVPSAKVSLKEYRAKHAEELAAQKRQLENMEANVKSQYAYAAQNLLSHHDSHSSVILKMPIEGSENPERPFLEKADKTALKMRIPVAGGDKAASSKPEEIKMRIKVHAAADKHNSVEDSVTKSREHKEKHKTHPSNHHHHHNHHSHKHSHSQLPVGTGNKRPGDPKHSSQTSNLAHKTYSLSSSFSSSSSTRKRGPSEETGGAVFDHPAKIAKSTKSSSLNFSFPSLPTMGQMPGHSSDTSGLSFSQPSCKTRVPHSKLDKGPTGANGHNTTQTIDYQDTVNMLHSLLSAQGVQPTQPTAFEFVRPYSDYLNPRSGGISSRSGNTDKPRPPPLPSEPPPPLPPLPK
Sequence of CYR2C8 (P10632 whole entry): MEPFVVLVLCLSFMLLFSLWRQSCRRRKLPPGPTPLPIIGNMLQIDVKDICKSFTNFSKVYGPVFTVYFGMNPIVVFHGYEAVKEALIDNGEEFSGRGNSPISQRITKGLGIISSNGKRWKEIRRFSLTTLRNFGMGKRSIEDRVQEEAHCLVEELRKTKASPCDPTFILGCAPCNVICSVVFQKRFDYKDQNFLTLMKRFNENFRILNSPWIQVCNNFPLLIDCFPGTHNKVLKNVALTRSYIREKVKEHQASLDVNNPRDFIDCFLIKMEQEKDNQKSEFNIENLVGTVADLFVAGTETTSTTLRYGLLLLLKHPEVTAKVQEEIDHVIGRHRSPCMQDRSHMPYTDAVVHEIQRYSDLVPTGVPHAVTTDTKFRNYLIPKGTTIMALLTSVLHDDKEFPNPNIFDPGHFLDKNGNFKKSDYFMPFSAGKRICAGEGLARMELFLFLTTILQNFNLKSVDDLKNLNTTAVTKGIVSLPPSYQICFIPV
Sequence of CDK8/cyclin C (P49336 whole entry): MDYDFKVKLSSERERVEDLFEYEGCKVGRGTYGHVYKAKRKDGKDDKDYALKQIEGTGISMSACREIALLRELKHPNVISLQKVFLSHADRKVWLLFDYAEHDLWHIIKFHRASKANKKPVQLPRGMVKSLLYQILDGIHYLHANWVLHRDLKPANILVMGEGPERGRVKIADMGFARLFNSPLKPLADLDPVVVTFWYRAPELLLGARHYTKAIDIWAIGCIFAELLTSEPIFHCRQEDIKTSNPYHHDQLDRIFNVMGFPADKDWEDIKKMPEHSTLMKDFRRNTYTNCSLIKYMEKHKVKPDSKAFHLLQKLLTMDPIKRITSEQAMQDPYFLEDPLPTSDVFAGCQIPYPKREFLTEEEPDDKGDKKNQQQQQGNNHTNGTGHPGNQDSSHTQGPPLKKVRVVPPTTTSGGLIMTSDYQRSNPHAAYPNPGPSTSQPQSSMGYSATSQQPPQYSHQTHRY
Sequence of CDK8/cyclin C (P24863 whole entry partner): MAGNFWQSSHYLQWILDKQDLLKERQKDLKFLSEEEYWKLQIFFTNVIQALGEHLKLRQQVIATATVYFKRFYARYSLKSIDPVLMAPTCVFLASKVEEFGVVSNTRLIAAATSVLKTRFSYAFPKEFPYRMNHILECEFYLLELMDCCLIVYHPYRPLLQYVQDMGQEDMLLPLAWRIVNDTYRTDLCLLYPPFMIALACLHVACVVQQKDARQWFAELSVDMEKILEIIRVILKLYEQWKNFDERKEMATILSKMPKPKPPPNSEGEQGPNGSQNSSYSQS
Sequence of CDK19/cyclin C (Q9BWU1 whole entry): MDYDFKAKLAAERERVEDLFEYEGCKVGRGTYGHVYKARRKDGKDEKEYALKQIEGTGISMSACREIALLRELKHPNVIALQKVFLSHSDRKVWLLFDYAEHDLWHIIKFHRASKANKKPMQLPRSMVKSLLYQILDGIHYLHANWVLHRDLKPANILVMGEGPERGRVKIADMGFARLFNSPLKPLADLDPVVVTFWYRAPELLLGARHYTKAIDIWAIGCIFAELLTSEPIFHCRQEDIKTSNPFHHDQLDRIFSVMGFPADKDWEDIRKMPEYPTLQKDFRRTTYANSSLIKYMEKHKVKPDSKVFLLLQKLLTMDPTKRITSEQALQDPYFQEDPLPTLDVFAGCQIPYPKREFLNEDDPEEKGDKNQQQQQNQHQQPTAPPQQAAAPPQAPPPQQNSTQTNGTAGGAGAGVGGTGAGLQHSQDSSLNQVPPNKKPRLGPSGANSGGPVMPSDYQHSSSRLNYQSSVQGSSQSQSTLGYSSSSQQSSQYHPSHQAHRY
Sequence of CDK19/cyclin C (P24863 whole entry partner): as the sequence (P24863 whole entry partner) above

Q: Which IC50 (SKNO-1) does the source give for `Nc1nccc2c(Br)cc3cc(C(=O)O)ccc3c12` [MK256] here?
A: 73 nM

Q: And the IC50 (MV-4-11)?
A: 23 nM

Q: And the IC50 (MOLM-13)?
A: 1050 nM

Q: What about the IC50 (KG-1) of the same compound?
A: 80 nM

Q: What about the IC50 (HEL; [3]) of the same compound?
A: > 2000 nM

Q: And the IC50 (HEL; read-out: IC50 nM (7-day))?
A: 2700 nM

Q: What about the IC50 (MUTZ-8; [3]) of the same compound?
A: > 2000 nM

Q: And the IC50 (MUTZ-8; read-out: IC50 nM (7-day))?
A: 5560 nM

Q: And the IC50 (MONO-MAC-6)?
A: 1260 nM

Q: What about the IC50 (NOMO-1) of the same compound?
A: 646 nM

Q: What about the IC50 (MOLM-14) of the same compound?
A: 24 nM

Q: What about the “Clint (μL·min^−1·mg protein^−1)” value ([1]; Dog hepatocytes) of the same compound?
A: 7 μL·min^−1·mg protein^−1

Q: And the half-life at 1 µM ([1]; dog, cryopreserved dog hepatocytes, read-out: T½)?
A: 3.57 h

Q: What about the IC50 (CDK8/cyclin C) of the same compound?
A: 2.5 nM

Q: And the “fold reduction of activity against CDK9 in comparison to CDK8” value (CDK9; CDK9 IC50 vs CDK8 IC50)?
A: approximately 40 fold

Q: And the IC50 (CDK9; read-out: IC50 against CDK9)?
A: 105 nM

Q: What about the IC50 (CDK19/cyclin C) of the same compound?
A: 3.3 nM

Q: And the “histology of major organs (bone, brain, heart, intestine, kidney, liver and lung)” value [2]?
A: did not cause visible pathological changes

Q: What about the “cytochrome P450 inhibition” value (CYR2C8) of the same compound?
A: no inhibition
